Measurements as given in patent US20260132165A1, “MODIFIED NUCLEOSIDE ANALOGUE AND USE THEREOF, AND NUCLEOSIDE ANALOGUE-CONTAINING DOUBLE-STRANDED OLIGONUCLEOTIDE AND USE THEREOF” (RIGERNA THERAPEUTICS (BEIJING) CO., LTD., priority 2023, published 2026).

Tests used:
target gene SOD1 [1] = assay: Test Example 6: inhibitory activity of NM073, NM074 conjugated siRNA sequences on SOD1 by intrathecal administration to rats; format: in vivo, SD rats; settings: D28
Method: 6-8 Week-old SD rats were randomly grouped by body weight. Rats in each group were administered with siRNA by intrathecal administration, with an administration dose of 900 μg per rat. Injection was administered from rat spinal cord L5-L6, with an administration volume of 40 μL. Needle was retained for 2 min after completion of injection, and then slowly withdrawn. PBS control group was administered with the same volume of siRNA conjugate-free PBS solution. The day of administration was recorded as 0 day (D0), and the rats were sacrificed at observation point after administration. Different segments of spinal cord and different regions of brain were respectively taken and stored in the RNAlater.
RNA extraction: the above tissue samples were taken out from the RNAlater, and smashed for 60 s in Tissuelyser type II full-automatic tissue homogenizer, and total RNAs of various tissue samples were extracted using the full-automatic nucleic acid extraction instrument and the nucleic acid extraction kit from Zhejiang Hanwei Science and Technology Co. Ltd. according to methods described in instructions.
Reverse transcription reaction: 1 μg of the extracted total RNAs of the tissue samples were taken, and configured into 20 μL of reverse transcription system according to a method described in kit instructions by using a reverse transcription kit (Reverse Transcription System, A3500) from Promega Corporation and selecting Oligo (dT)15 reverse transcription primers, and the reverse transcription reaction was completed. After the reaction was ended, 80 μL of RNase-Free water was added into the reverse transcription system to provide cDNA solution for Real-time PCR detection.
Real-time PCR detection: 20 μL of Real-time PCR reaction system per PCR detection well was configured according to a method described in kit instructions using SYBR™ Select Master Mix (Catalog number: 4472908) reagent from ABI company. Each detection system contained 5 μL of cDNA template obtained from the above reverse transcription reaction, 10 μL of SYBR™ Select Master Mix, 0.5 μL of 10 μM upstream primers, 0.5 μL of 10 μM downstream primers, and 4 μL of RNase-Free H2O. The configured reaction system was subjected to Real-time PCR amplification on ABI StepOnePlus PCR instrument by a three-step method, wherein an amplification procedure was pre-denaturation at 95° C. for 10 min, then denaturation at 95° C. for 30 s, annealing at 60° C. for 30 s, and extension at 72° C. for 30 s; and processes of denaturation, annealing, and extension were repeated for 40 cycles. Gene expression differences were calculated by the ΔΔCt method after completion of the procedure.
In the real-time fluorescence quantitative PCR method, relative quantitative calculation of remaining expression level and inhibition rate of gene mRNA of interest in various test groups was performed by the ΔΔCt method, and the calculation method is as follows:
The present test example evaluated, by an evaluation method for inhibitory activity on a target gene by intrathecal administration to rats, the inhibitory activity of siRNA sequence RZ899090 with the NM073 conjugation at Position 4, siRNA sequence RZ899091 with the NM074 conjugation at Position 4 and siRNA control sequence RZ899093 with the Uhd conjugation on the target gene SOD1 of interest in spinal cord and brain of rats. The above conjugation vectors were different in that NM073 was C18 aliphatic chain and NM074 was C20 aliphatic chain.
6-8 Week-old SD rats were randomly grouped by body weight, 5 per group, 4 groups in total. Rats in each group were dosed with the above siRNA conjugates by intrathecal administration, with an administration dose of 900 μg per rat, and an administration volume of 40 μL. PBS control group was administered with the same volume of siRNA conjugate-free PBS solution. The day of administration was recorded as D0, and the rats were sacrificed on D28 after administration. […]

target gene SOD1 [2] = assay: Test Example 7: inhibitory activity of lipid conjugated siRNA sequences on SOD1 in mouse adipose and muscle tissues (tail vein injection); format: in vivo, C57BL/6j mice

RZ899090: siRNA sequence with the sense strand with the NM073 (C18) conjugation at Position 4; SEQ ID NO: 15 / 23 (sense UUUNAAUCCUCACUCUAAA; antisense UUUAGAGUGAGGAUUAAAAUG; NM073 (C18) conjugate at sense position 4; modified_base 1..2 OTHER; 2'-methoxy and 5'-thiophosphate modified nucleotides; modified_base 3 OTHER; 2'-methoxy modified nucleotide; modified_base 4 OTHER; n is the nucleotide analog NM073 as described in the disclosure.; modified_base 5..6 OTHER; 2'-methoxy modified nucleotides; modified_base 7..10 OTHER; 2'-fluoro modified nucleotides; modified_base 11..19 OTHER; modified_base 1 OTHER; 2'-methoxy and 5'-thiovinylphosphonate modified nucleotide; modified_base 2 OTHER; 2'-fluoro and 5'-thiophosphate modified nucleotide; modified_base 3..5 OTHER; …)
Cerebellum % Mean value of inhibition rate (target gene SOD1 [1]; cerebellum, intrathecal, 900 μg per rat): 56.97%
Cortex % Mean value of inhibition rate (target gene SOD1 [1]; cerebral cortex, intrathecal, 900 μg per rat): −15.00%
Hippocampus % Mean value of inhibition rate (target gene SOD1 [1]; hippocampus, intrathecal, 900 μg per rat): 35.35%
level of inhibition on the target gene compared with the Uhd control conjugate (RZ899093) (target gene SOD1 [1]; intrathecal 900 μg per rat): comparable level of inhibition in the spinal cord segment and cerebellum
Cervical segment % Mean value of inhibition rate (target gene SOD1 [1]; spinal cord cervical segment, intrathecal, 900 μg per rat): 69.98%
Lumbar segment % Mean value of inhibition rate (target gene SOD1 [1]; spinal cord lumbar segment, intrathecal, 900 μg per rat): 93.93%
Thoracic segment % Mean value of inhibition rate (target gene SOD1 [1]; spinal cord thoracic segment, intrathecal, 900 μg per rat): 94.17%
inhibitory action on liver and kidney tissues (target gene SOD1 [2]; liver and kidney (non-target tissues), tail vein 5 mg/kg, D28 and D49): no inhibitory action
D 14 % Mean value of inhibition rate (target gene SOD1 [2]; mouse adipose tissues (paragonadal fat), tail vein injection 5 mg/kg, D14): 92.09%
D 28 % Mean value of inhibition rate (target gene SOD1 [2]; mouse adipose tissues (paragonadal fat), tail vein injection 5 mg/kg, D28): 85.11%
D 49 % Mean value of inhibition rate (target gene SOD1 [2]; mouse adipose tissues (paragonadal fat), tail vein injection 5 mg/kg, D49): 61.34%
inhibitory activity compared with the NM200 conjugated reference sequence RZ899076 (target gene SOD1 [2]; mouse adipose tissues, tail vein 5 mg/kg, D14): on par
inhibitory activity compared with Uhd conjugated reference sequence RZ899093 and NM200 conjugated reference sequence RZ899076 (target gene SOD1 [2]; mouse heart tissues, tail vein 5 mg/kg, D14, D28 and D49): superior inhibitory activity
D 14 % Mean value of inhibition rate (target gene SOD1 [2]; mouse heart tissues, tail vein injection 5 mg/kg, D14): 79.58%
D 28 % Mean value of inhibition rate (target gene SOD1 [2]; mouse heart tissues, tail vein injection 5 mg/kg, D28): 82.12%
D 49 % Mean value of inhibition rate (target gene SOD1 [2]; mouse heart tissues, tail vein injection 5 mg/kg, D49): 65.43%
Kidney D 14 % Mean value of inhibition rate (target gene SOD1 [2]; mouse kidney, tail vein injection 5 mg/kg, D14): 31.38%
Kidney D 28 % Mean value of inhibition rate (target gene SOD1 [2]; mouse kidney, tail vein injection 5 mg/kg, D28): 15.90%
Kidney D 49 % Mean value of inhibition rate (target gene SOD1 [2]; mouse kidney, tail vein injection 5 mg/kg, D49): 7.12%
Liver D 14 % Mean value of inhibition rate (target gene SOD1 [2]; mouse liver, tail vein injection 5 mg/kg, D14): 36.99%
Liver D 28 % Mean value of inhibition rate (target gene SOD1 [2]; mouse liver, tail vein injection 5 mg/kg, D28): 7.32%
Liver D 49 % Mean value of inhibition rate (target gene SOD1 [2]; mouse liver, tail vein injection 5 mg/kg, D49): −12.46%
D 14 % Mean value of inhibition rate (target gene SOD1 [2]; mouse skeletal muscle tissues (left hind leg quadriceps muscle), tail vein injection 5 mg/kg, D14): 57.16%
D 28 % Mean value of inhibition rate (target gene SOD1 [2]; mouse skeletal muscle tissues (left hind leg quadriceps muscle), tail vein injection 5 mg/kg, D28): 51.23%
D 49 % Mean value of inhibition rate (target gene SOD1 [2]; mouse skeletal muscle tissues (left hind leg quadriceps muscle), tail vein injection 5 mg/kg, D49): 42.93%
inhibitory activity in mouse skeletal muscle tissues (target gene SOD1 [2]; skeletal muscle, tail vein 5 mg/kg): certain inhibitory activity
